Assay [1] relates to Human breast cancer cell line T-47D. Briefly: Caspase cascade activation assay (N-(Ac-DEVD)-N'-ethoxycarbonyl-R110 fluorogenic substrate) in T-47D cells. The format is cell-based. The note with it: for Caspase activity (Ratio) T-47D: 24 h incubation with compound, ratio of net RFU (T=3 h) of test compound to control; for EC50: Homo sapiens, T47D, 24 h, 24 h incubation, sigmoidal dose-response, read-out: Caspase potency EC50 (nM) T-47D. Here is the method:
(§1) Human breast cancer cell lines T-47D and ZR-75-1 were grown according to media component mixtures designated by American Type Culture Collection +10% FCS (Invitrogen Corporation), in a 5% CO2-95% humidity incubator at 37° C. T-47D and ZR-75-1 cells were maintained at a cell density between 30 and 80% confluency at a cell density of 0.1 to 0.6×10^6 cells/ml. Cells were harvested at 600×g and resuspended at 0.65×10^6 cells/mL into appropriate media +10% FCS. An aliquot of 45 μl of cells was added to a well of a 96-well microtiter plate containing 5 μl of a 10% DMSO in RPMI-1640 media solution containing 0.16 to 10 μM of 2-amino-3-cyano-4-(3-bromo-4,5-dimethoxyphenyl)-4H-indolo[7,6-b]pyran (Example 42) or other test compound (0.016 to 1 μM final). An aliquot of 45 μl of cells was added to a well of a 96-well microtiter plate containing 5 μl of a 10% DMSO in RPMI-1640 media solution without test compound as the control sample. The samples were mixed by agitation and then incubated at 37° C. for 24 h in a 5% CO2-95% humidity incubator. After incubation, the samples were removed from the incubator and 50 μl of a solution containing 20 μM of N-(Ac-DEVD)-N′-ethoxycarbonyl-R110 (SEQ ID NO:1) fluorogenic substrate (Cytovia, Inc.; WO99/18856), 20% sucrose (Sigma), 20 mM DTT (Sigma), 200 mM NaCl (Sigma), 40 mM Na PIPES buffer pH 7.2 (Sigma), and 500 μg/ml lysolecithin (Calbiochem) was added. The samples were mixed by agitation and incubated at room temperature. Using a fluorescent plate reader (Model 1420 Wallac Instruments), an initial reading (T=0) was made approximately 1-2 min after addition of the substrate solution, employing excitation at 485 nm and emission at 530 nm, to determine the background fluorescence of the control sample. After the 3 h incubation, the samples were read for fluorescence as above (T=3 h).
(§2) The Relative Fluorescence Unit values (RFU) were used to calculate the sample readings as follows: RFU(T=3h)−Control RFU(T=0)=Net RFU(T=3h)
(§3) The activity of caspase cascade activation was determined by the ratio of the net RFU value for 2-amino-3-cyano-4-(3-bromo-4,5-dimethoxyphenyl)-4H-indolo[7,6-b]pyran or other test compound to that of control samples. The EC50 (nM) was determined by a sigmoidal dose-response calculation (Prism 2.0, GraphPad Software Inc.).

In assay [2] the test system is Human breast cancer cell line ZR-75-1. The assay is described as follows: Caspase cascade activation assay (N-(Ac-DEVD)-N'-ethoxycarbonyl-R110 fluorogenic substrate) in ZR-75-1 cells. The format is cell-based. Conditions: ZR-75-1 cells; for EC50: Homo sapiens, ZR-75-1, 24 h, 24 h incubation, sigmoidal dose-response, read-out: Caspase potency EC50 (nM) ZR-75-1; for Caspase activity (Ratio) ZR-75-1: 24 h incubation with compound, ratio of net RFU (T=3 h) of test compound to control. The protocol: as §1, §2, §3

This note sets out measurements from patent US20060035925A1, “SUBSTITUTED 4H-CHROMENES AND ANALOGS AS ACTIVATORS OF CASPASES AND INDUCERS OF APOPTOSIS AND THE USE THEREOF” (Cytovia, Inc., priority 1999, published 2006).

One may read the EC50 as the concentration giving half of the maximal effect.

Consider `COc1ccc2c(c1)OC(N)=C(C#N)C2c1cncc(C)c1` (stereo not drawn) [Example 30, 2-Amino-3-cyano-7-methoxy-4-(5-methyl-3-pyridyl)-4H-chromene], for which, in assay [1], the “Caspase activity (Ratio) T-47D” value was 7.5 and the EC50 was 24 nM. In assay [2], the EC50 was 14 nM and the “Caspase activity (Ratio) ZR-75-1” value came to 13.2.

For the molecule `N#CC1=C(N)OC2C3=CC=NC3=CC=C2C1c1cc(F)cc(F)c1` (stereo not drawn) [Example 2K, 2-Amino-3-cyano-4-(3,5-difluorophenyl)-4H-indolo[4,5-b]pyran], in assay [1], the “Caspase activity (Ratio) T-47D” value is listed as 5.6 and the EC50 came to 37 nM. For the same molecule, in assay [2], the EC50 turned out to be 16 nM and the “Caspase activity (Ratio) ZR-75-1” value is recorded as 6.9.

With `N#CC1=C(N)OC2C3=CC=NC3=CC=C2C1c1cccnc1` (stereo not drawn) [Example 18, 2-Amino-3-cyano-4-(3-pyridyl)-4H-indolo[4,5-b]pyran], in assay [1], the “Caspase activity (Ratio) T-47D” value is reported as 9.0 and the concentration for a half-maximal effect (EC50) was determined as 56 nM. Moreover, in assay [2], the EC50 amounted to 38 nM and the “Caspase activity (Ratio) ZR-75-1” value is on record as 8.8.

As for `N#CC1=C(N)OC2C3=CC=NC3=CC=C2C1c1cc(Cl)cc(Cl)c1` (stereo not drawn) [Example 2F, 2-Amino-3-cyano-4-(3,5-dichlorophenyl)-4H-indolo[4,5-b]pyran], in assay [1], the “Caspase activity (Ratio) T-47D” value came to 4.7 and the EC50 is 44 nM. In assay [2], the EC50 came out at 26 nM and the “Caspase activity (Ratio) ZR-75-1” value turned out to be 4.4.

For the molecule `Cc1cncc(C2C3=CC=C4C=CN=C4C3OC(N)=C2C#N)c1` (stereo not drawn) [Example 55, 2-Amino-3-cyano-4-(5-methyl-pyridin-3-yl)-4H-indolo[7,6-b]pyran], in assay [1], the “Caspase activity (Ratio) T-47D” value is recorded as 7.4 and the EC50 came to 15.3 nM. Besides, in assay [2], the EC50 worked out at 4 nM and the “Caspase activity (Ratio) ZR-75-1” value amounted to 7.2.

In the case of `COc1ccc2c(c1)OC(N)=C(C#N)C2C1CC=CCC1` (stereo not drawn) [Example 28, 2-Amino-3-cyano-7-methoxy-4-(1,2,3,6-tetrahydrophenyl)-4H-chromene], in assay [1], the “Caspase activity (Ratio) T-47D” value stood at 3.4 and the EC50 came to 158 nM. Further, in assay [2], the EC50 turned out to be 154 nM and the “Caspase activity (Ratio) ZR-75-1” value came out at 5.2.

As to `COc1cccc(C2C(C#N)=C(N)Oc3cc(N)ccc32)c1` (stereo not drawn) [Example 21, 2,7-Diamino-3-cyano-4-(3-methoxyphenyl)-4H-chromene], in assay [1], the “Caspase activity (Ratio) T-47D” value is recorded as 6.0 and the EC50 came out at 697 nM. For the same molecule, in assay [2], the EC50 was found to be 562 nM and the “Caspase activity (Ratio) ZR-75-1” value stood at 9.2.

On to `N#CC1=C(N)Oc2cc(N)ccc2C1c1cccc(Cl)c1` (stereo not drawn) [Example 22, 2,7-Diamino-3-cyano-4-(3-chlorophenyl)-4H-chromene], for which, in assay [1], the “Caspase activity (Ratio) T-47D” value came to 5.8 and the EC50 is 4800 nM. In assay [2], the EC50 came to 2480 nM and the “Caspase activity (Ratio) ZR-75-1” value amounted to 8.0.

In the case of `N#CC1=C(N)Oc2cc(N)ccc2C1c1cccc(C#N)c1` (stereo not drawn) [Example 20, 2,7-Diamino-3-cyano-4-(3-cyanophenyl)-4H-chromene], in assay [1], the “Caspase activity (Ratio) T-47D” value turned out to be 4.0 and the EC50 was found to be 120 nM. Besides, in assay [2], the EC50 was 58 nM and the “Caspase activity (Ratio) ZR-75-1” value is given as 5.2.

As to `COc1cc(C2C(C#N)=C(N)Oc3c2ccc(N)c3O)cc(Br)c1OC` (stereo not drawn) [Example 74, 2-Amino-3-cyano-7-amino-8-hydroxy-4-(3-bromo-4,5-dimethoxyphenyl)-4H-chromene], in assay [1], the “Caspase activity (Ratio) T-47D” value is 7.4 and the EC50 is 149 nM. In addition, in assay [2], the EC50 came to 99.3 nM and the “Caspase activity (Ratio) ZR-75-1” value was 8.9.

For the molecule `COc1cc(C2C(C#N)=C(N)Oc3c2ccc(O)c3N)cc(Br)c1OC` (stereo not drawn) [Example 2I, 2-Amino-3-cyano-7-hydroxy-8-amino-4-(3-bromo-4,5-dimethoxyphenyl)-4H-chromene], in assay [1], the “Caspase activity (Ratio) T-47D” value was 6.2 and the EC50 amounted to 50.4 nM.
